Laboratory results published in patent US9096581B2, “Fluoroethyl thiamine or salts thereof and application thereof in preparation of anticoccidial drugs” (GUANGZHOU ORIGMOL FEED-ADDITIVE CO., LTD, priority 2012, dated 2015).
“Also recorded” adds a separate entry of the source. Structures can show the parent of a compound that is named as a salt.

How the values were obtained:
Format in all cases: in vivo
[1] = tested on: Eimeria tenella GD strains; assay: Comparison with other anticoccidial drugs in chickens infected with Eimeria tenella GD (Embodiment 3); parameters: oocyst value: scale not given here; conditions: for anticoccidial index (ACI) / number of oocysts in cecum / lesion value / survival rate / average weight gain / bloody feces scoring / oocyst value / relative weight gain rate: 125 ppm in feed; for number of oocysts in cecum / lesion value / average weight gain: 7th day; for lesion value: cecum, scale 0-40; for survival rate / average weight gain / bloody feces scoring: chickens; for bloody feces scoring: 5 days after infecting, score 0-4; for oocyst value: converted per Table 2; for relative weight gain rate: vs non-infected non-drug control
Text: 1-day-old Lingnan yellow chickens, purchased from Poultry Research Unit, Bureau of Animal Husbandry, Guangdong Academy of Agricultural Sciences, bred under coccidium-free environment, and subjected to experiment after no coccidium oocyst is found in feces through microscopic examination when the chickens are 14 days old. Perfect compound feed for chickens: prepared by Huizhou Yuantai Feed Co. Ltd., and containing no antibacterial or anticoccidial additive.
Eimeria tenella GD strains, having no resistance to various anticoccidial drugs. Breeding and amplifying in one chicken before the experiment, collecting fresh oocysts, sporulating, and preserving at 4° C. for later use.
(§1) Weighing the 14-day-old experiment chickens one by one, rejecting emaciated chickens or overweighted chickens, selecting healthy chickens of which the individual body weight difference is within 20 g, and dividing into 6 groups with 30 chickens in each group. Groups 1 and 2 are respectively a non-drug-applied and non-coccidium-killed control group and a coccidium-infected and non-drug-applied control group, and Groups 3-6 are respectively added with different anticoccidial drugs according to Table 4. Feeding with feed containing different drugs on the day of experiment grouping, enabling the chickens to freely take in the feed, and feeding the chickens until the experiment ends.
(§2) Except the non-coccidium-infected and non-drug-applied control group, giving each experiment chicken in each experiment group with 2.5×10^5 eimeria tenella sporulated oocysts via the crop on next day of the grouping day. During experiment, observing and recording the spirit, appetite, bloody feces situation, death count and the like of the chickens every day. Performing bloody feces scoring on the chickens in each group 5 days after infecting. On the 7th day, respectively weighing all the chickens in each group, then autopsying them, observing cecum lesions and counting the oocysts in the cecum.
(§3) The evaluation standard is the same with Embodiment 2.

[2] = tested on: Eimeria tenella JM strains (amprolium-resistant); assay: Effect on amprolium-resistant coccidium strain in chickens (Embodiment 4); conditions: 125 ppm in feed; for number of oocysts in cecum / lesion value / the average weight gain: 7th day; for lesion value: cecum, scale 0-40; for survival rate / the average weight gain / bloody feces scoring: chickens; for bloody feces scoring: 5 days after infecting, score 0-4; for oocyst value: converted per Table 2; for relative weight gain rate: vs non-infected non-drug control
Description: (§4) 1-day-old Lingnan yellow chickens, purchased from Poultry Research Unit, Bureau of Animal Husbandry, Guangdong Academy of Agricultural Sciences, bred under coccidium-free environment, and subjected to grouping and experiment after no coccidium oocyst is found in feces through microscopic examination when the chickens are 14 days old.
Eimeria tenella JM strains, separated and purified from a chicken farm in Jiangmen, Guangdong, which are tested and identified to be amprolium-resistant coccidium strains. Breeding and amplifying in chickens before the experiment, collecting fresh eggs, sporulating, and preserving at 4° C. for later use.
as §1, with “4” for “6”, “3 and 4” for “3-6”, “fluoroethyl thiamine hydrochloride and amprolium.” for “different anticoccidial drugs according to Table 4.”, “grouping according to Table 6,” for “grouping,”
as §2, with “group with 1.0×10^5 eimeria tenella” for “group with 2.5×10^5 eimeria tenella”, “crop on the next day” for “crop on next day”
as §3

[3] = tested on: Eimeria maxima PY strains; assay: Anticoccidial effect on Eimeria maxima in chickens (Embodiment 6); conditions: 125 ppm in feed; for average weight gain / number of oocysts in feces: 7th day after infecting; for survival rate: chickens; for relative decrement rate of oocysts: vs infected non-drug control; for relative weight gain rate: vs non-infected non-drug control
Text: as §4
Eimeria maxima PY strains, having no resistance to various anticoccidial drugs. Breeding and amplifying in chickens before the experiment, collecting fresh oocysts, sporulating, and preserving at 4° C. for later use.
(§5) Weighing the 14-day-old experiment chickens one by one, rejecting emaciated chickens or overweighted chickens, selecting healthy chickens of which the individual body weight difference is within 20 g, and dividing to 4 groups with 30 chickens in each group. Groups 1 and 2 are respectively a non-drug-applied and non-coccidium-killed control group and a coccidium-infected and non-drug-applied control group, and Groups 3 and 4 are added with fluoroethyl thiamine hydrochloride or amprolium according to Table 10. Feeding with feed containing different drugs on the day of experiment grouping, enabling the chickens to freely take in feed, and feeding the chickens until the experiment ends.
Except the non-coccidium-infected and non-drug-applied control group, giving each experiment chicken in each experiment group with 3×10^5 eimeria maxima sporulated oocysts via the crop on the next day of the grouping day. During experiment, observing and recording the spirit, appetite, bloody feces situation, death count and the like of the chickens every day. On the 7th day after infecting, respectively weighing each group, calculating the relative weight gain rate, simultaneously collecting feces samples, and counting the number of oocysts per gram of feces.
(§6) The anticoccidial effect evaluation is the same with Embodiment 5.

[4] = tested on: Eimeria necatrix GD strains; assay: Anticoccidial effect on Eimeria necatrix in chickens (Embodiment 7); conditions: 125 ppm in feed; for average weight gain / number of oocysts in feces: 7th day after infecting; for survival rate: chickens; for relative decrement rate of oocysts: vs infected non-drug control; for relative weight gain rate: vs non-infected non-drug control
Text: as §4
Eimeria necatrix GD strains, having no resistance to various anticoccidial drugs. Breeding and amplifying in chickens before the experiment, collecting fresh oocysts, sporulating, and preserving at 4° C. for later use.
as §5, with “to Table 12. Feeding with” for “to Table 10. Feeding with”, “take in the feed, and” for “take in feed, and”
Except the non-coccidium-infected and non-drug-applied control group, giving each experiment chicken in each experiment group with 1×10^5 eimeria necatrix sporulated oocysts via the crop on the next day of the grouping day. During experiment, observing and recording the spirit, appetite, bloody feces situation, death count and the like of the chickens every day. On the 7th day after infecting, respectively weighing each group, calculating the relative weight gain rate, simultaneously collecting feces samples, and counting the number of oocysts per gram of feces.
as §6

Row | Structure (SMILES) | anticoccidial index (ACI) [1] | number of oocysts in cecum [1] | lesion value [1] | survival rate [1] | average weight gain [1] | bloody feces scoring [1] | oocyst value [1] | relative weight gain rate [1] | anticoccidial index (ACI) [2] | effect on amprolium-resistant strain, in words [2] | number of oocysts in cecum [2] | lesion value [2] | survival rate [2] | the average weight gain [2] | bloody feces scoring [2] | oocyst value [2] | relative weight gain rate [2] | average weight gain [3] | number of oocysts in feces [3] | survival rate [3] | also measured
1 | CCCc1ncc(C[n+]2ccccc2C)c(N)n1 [amprolium, Amprolium, reference compound] | 191.2 | 0.566 ×10^6/chicken | 4 | 100% | 166.3 g/chicken | 0 | 1 | 96.2% | 93.5 | eimeria tenella JM strain has resistance to amprolium | 2.878 ×10^6/chicken | 28.4 | 60% | 135.6 g/chicken | 4 | 10 | 71.9% | 167.4 g | 8600 g⁻¹ | 100% | relative decrement rate of oocysts [3]: 79.5%; relative weight gain rate [3]: 93.1%; average weight gain [4]: 159.9 g; number of oocysts in feces [4]: 3600 g⁻¹; survival rate [4]: 100%; relative decrement rate of oocysts [4]: 73.3%; relative weight gain rate [4]: 86.2%
2 | CCc1ncc(C[n+]2csc(CCF)c2C)c(N)n1 [fluoroethyl thiamine hydrochloride, 3-[(4-amino-2-ethyl-5-pyrimidyl)-methylene]-5-(2-fluoroethyl)-4-methyl thiazole chloride hydrochloride] | 201.6 | 0 ×10^6/chicken | 0 | 100% | 175.6 g/chicken | 0 | 0 | 101.6% | 196.8 | can protect the experiment chickens from being infected by the strains | 0 ×10^6/chicken | 0 | 100% | 182.7 g/chicken | 0 | 0 | 96.8% | 176.3 g | 3700 g⁻¹ | 100% | comparison with the other anticoccidial drugs ([1]; 125 ppm in feed (maduramicin 5 ppm), hydrochloride): superior to amprolium and maduramicin in lesion and oocyst value; also recorded: superior to nicarbazin in weight gain; inhibition of eimeria maxima, in words ([3]; hydrochloride): significant inhibition effect on eimeria maxima; also recorded: superior to amprolium in eimeria maxima inhibition; relative decrement rate of oocysts [3]: 91.2%; relative weight gain rate [3]: 98.0%; average weight gain [4]: 172.5 g; number of oocysts in feces [4]: 1900 g⁻¹; survival rate [4]: 100%; inhibition of eimeria necatrix, in words ([4]; hydrochloride): can effectively control infection of the eimeria necatrix; also recorded: superior to amprolium in eimeria necatrix inhibition; relative decrement rate of oocysts [4]: 85.9%; relative weight gain rate [4]: 92.9%
